From the NIST ThermoML archive (doi:10.1016/j.fluid.2011.12.029)

Settings: Liquid, Vibrating tube method

CCCC[n+]1cccc(C)c1.N#C[N-]C#N [1-butyl-3-methylpyridinium dicyanamide]
Settings	mass density [kg/m3]
283.15 K, 100 kPa	1058.8
283.15 K, 5000 kPa	1060.66
283.15 K, 10000 kPa	1062.55
283.15 K, 15000 kPa	1064.33
283.15 K, 20000 kPa	1066.19
283.15 K, 25000 kPa	1067.75
288.15 K, 100 kPa	1055.64
288.15 K, 5000 kPa	1057.59
288.15 K, 10000 kPa	1059.47
288.15 K, 15000 kPa	1061.24
288.15 K, 20000 kPa	1063.09
288.15 K, 25000 kPa	1064.88
288.15 K, 30000 kPa	1066.59
288.15 K, 35000 kPa	1068.35
288.15 K, 40000 kPa	1070.07
288.15 K, 45000 kPa	1071.67
288.15 K, 50000 kPa	1073.24
293.15 K, 100 kPa	1052.56
293.15 K, 5000 kPa	1054.46
293.15 K, 10000 kPa	1056.37
293.15 K, 15000 kPa	1058.23
293.15 K, 20000 kPa	1060.01
293.15 K, 25000 kPa	1061.8
293.15 K, 30000 kPa	1063.56
293.15 K, 35000 kPa	1065.35
293.15 K, 40000 kPa	1066.96
293.15 K, 45000 kPa	1068.69
293.15 K, 50000 kPa	1070.15
293.15 K, 55000 kPa	1072.13
293.15 K, 60000 kPa	1073.41
293.15 K, 65000 kPa	1074.96
298.15 K, 100 kPa	1049.45
298.15 K, 5000 kPa	1051.35
298.15 K, 10000 kPa	1053.24
298.15 K, 15000 kPa	1055.19
298.15 K, 20000 kPa	1057.08
298.15 K, 25000 kPa	1058.87
298.15 K, 30000 kPa	1060.59
298.15 K, 35000 kPa	1062.37
298.15 K, 40000 kPa	1064.1
298.15 K, 45000 kPa	1065.73
298.15 K, 50000 kPa	1067.37
298.15 K, 55000 kPa	1069.04
298.15 K, 60000 kPa	1070.61
298.15 K, 65000 kPa	1072.1
303.15 K, 100 kPa	1046.36
303.15 K, 5000 kPa	1048.3
303.15 K, 10000 kPa	1050.18
303.15 K, 15000 kPa	1052.05
303.15 K, 20000 kPa	1053.94
303.15 K, 25000 kPa	1055.82
303.15 K, 30000 kPa	1057.57
303.15 K, 35000 kPa	1059.35
303.15 K, 40000 kPa	1061.07
303.15 K, 45000 kPa	1062.75
303.15 K, 50000 kPa	1064.4
303.15 K, 55000 kPa	1066.19
303.15 K, 60000 kPa	1067.59
303.15 K, 65000 kPa	1069.21
308.15 K, 100 kPa	1043.21
308.15 K, 5000 kPa	1045.23
308.15 K, 10000 kPa	1047.28
308.15 K, 15000 kPa	1049.14
308.15 K, 20000 kPa	1051.02
308.15 K, 25000 kPa	1052.92
308.15 K, 30000 kPa	1054.8
308.15 K, 35000 kPa	1056.51
308.15 K, 40000 kPa	1058.23
308.15 K, 45000 kPa	1059.9
308.15 K, 50000 kPa	1061.71
308.15 K, 55000 kPa	1063.27
308.15 K, 60000 kPa	1064.76
308.15 K, 65000 kPa	1066.44
313.15 K, 100 kPa	1040.26
313.15 K, 5000 kPa	1042.22
313.15 K, 10000 kPa	1044.29
313.15 K, 15000 kPa	1046.25
313.15 K, 20000 kPa	1048.15
313.15 K, 25000 kPa	1050.05
313.15 K, 30000 kPa	1051.8
313.15 K, 35000 kPa	1053.63
313.15 K, 40000 kPa	1055.42
313.15 K, 45000 kPa	1057.11
313.15 K, 50000 kPa	1058.82
313.15 K, 55000 kPa	1060.43
313.15 K, 60000 kPa	1062.05
313.15 K, 65000 kPa	1063.59
318.15 K, 100 kPa	1037.22
318.15 K, 5000 kPa	1039.29
318.15 K, 10000 kPa	1041.17
318.15 K, 15000 kPa	1043.3
318.15 K, 20000 kPa	1045.08
318.15 K, 25000 kPa	1046.98
318.15 K, 30000 kPa	1048.91
318.15 K, 35000 kPa	1050.75
318.15 K, 40000 kPa	1052.38
318.15 K, 45000 kPa	1054.09
318.15 K, 50000 kPa	1055.97
318.15 K, 55000 kPa	1057.54
318.15 K, 60000 kPa	1059.3
318.15 K, 65000 kPa	1060.96
323.15 K, 100 kPa	1034.21
323.15 K, 5000 kPa	1036.41
323.15 K, 10000 kPa	1038.36
323.15 K, 15000 kPa	1040.45
323.15 K, 20000 kPa	1042.21
323.15 K, 25000 kPa	1044.3
323.15 K, 30000 kPa	1046.05
323.15 K, 35000 kPa	1047.94
323.15 K, 40000 kPa	1049.73
323.15 K, 45000 kPa	1051.45
323.15 K, 50000 kPa	1053.22
323.15 K, 55000 kPa	1054.85
323.15 K, 60000 kPa	1056.49
323.15 K, 65000 kPa	1058.03
328.15 K, 100 kPa	1031.21
328.15 K, 5000 kPa	1033.17
328.15 K, 10000 kPa	1035.31
328.15 K, 15000 kPa	1037.3
328.15 K, 20000 kPa	1039.35
328.15 K, 25000 kPa	1041.31
328.15 K, 30000 kPa	1042.96
328.15 K, 35000 kPa	1044.93
328.15 K, 40000 kPa	1046.72
328.15 K, 45000 kPa	1048.66
328.15 K, 50000 kPa	1050.54
328.15 K, 55000 kPa	1052.18
328.15 K, 60000 kPa	1053.85
328.15 K, 65000 kPa	1055.47
333.15 K, 100 kPa	1027.63
333.15 K, 5000 kPa	1030.21
333.15 K, 10000 kPa	1032.34
333.15 K, 15000 kPa	1034.45
333.15 K, 20000 kPa	1036.45
333.15 K, 25000 kPa	1038.36
333.15 K, 30000 kPa	1040.39
333.15 K, 35000 kPa	1042.19
333.15 K, 40000 kPa	1044.05
333.15 K, 45000 kPa	1045.58
333.15 K, 50000 kPa	1047.67
333.15 K, 55000 kPa	1049.26
333.15 K, 60000 kPa	1051.06
333.15 K, 65000 kPa	1052.61
